Read-outs that look alike come from different tables or passages of the source.
Columns and labels:
Type in all cases: cell-based
hGLP-1R = hGLP-1R (Homo sapiens, UniProt P43220); experiment: Functional cAMP formation (HTRF) in HEK-293 clonal cells expressing hGLP-1R, 0.1% bovine casein, without or with 1.0% human serum albumin; set-up: expressed in transfected cells; conditions: for EC50: geometric mean
How it was run: (§1)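 Cells were stimulated with peptide for 30 min at 37° C, then lysed in buffer carrying cAMP-d2 and anti-cAMP Eu3+-cryptate for a competitive HTRF read after at least 60 min at room temperature. The 665/620 nm ratio was converted to nM cAMP against a standard curve.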

hGCGR = molecular target: T1, hGCGR (Homo sapiens, UniProt P47871); experiment: Functional cAMP formation (HTRF) in HEK-293 clonal cells expressing hGCGR, 0.1% bovine casein, without or with 1.0% human serum albumin
T1 construct: expressed in transfected cells
T1 sequence (P47871 26-477): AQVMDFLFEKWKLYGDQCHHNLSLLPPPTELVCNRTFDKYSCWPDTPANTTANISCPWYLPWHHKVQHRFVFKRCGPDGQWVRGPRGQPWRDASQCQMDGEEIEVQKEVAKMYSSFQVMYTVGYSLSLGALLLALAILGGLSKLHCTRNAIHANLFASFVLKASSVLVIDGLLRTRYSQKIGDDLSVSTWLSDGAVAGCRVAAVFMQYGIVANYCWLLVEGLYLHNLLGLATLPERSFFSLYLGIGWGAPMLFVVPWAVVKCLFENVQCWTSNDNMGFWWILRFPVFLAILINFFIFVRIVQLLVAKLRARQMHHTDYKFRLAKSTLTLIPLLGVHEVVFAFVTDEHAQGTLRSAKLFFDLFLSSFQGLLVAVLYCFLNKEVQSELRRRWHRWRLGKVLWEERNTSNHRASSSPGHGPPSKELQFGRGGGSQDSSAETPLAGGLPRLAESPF
How it was run: as §1

hGIPR = molecular target: T2, hGIPR (Homo sapiens, UniProt P48546); experiment: Functional cAMP formation (HTRF) in HEK-293 clonal cells expressing hGIPR, 0.1% bovine casein, without or with 1.0% human serum albumin; conditions: for EC50: hGIPR EC50, nM (SEM, n), geometric mean
T2 construct: expressed in transfected cells
T2 sequence (P48546 22-466): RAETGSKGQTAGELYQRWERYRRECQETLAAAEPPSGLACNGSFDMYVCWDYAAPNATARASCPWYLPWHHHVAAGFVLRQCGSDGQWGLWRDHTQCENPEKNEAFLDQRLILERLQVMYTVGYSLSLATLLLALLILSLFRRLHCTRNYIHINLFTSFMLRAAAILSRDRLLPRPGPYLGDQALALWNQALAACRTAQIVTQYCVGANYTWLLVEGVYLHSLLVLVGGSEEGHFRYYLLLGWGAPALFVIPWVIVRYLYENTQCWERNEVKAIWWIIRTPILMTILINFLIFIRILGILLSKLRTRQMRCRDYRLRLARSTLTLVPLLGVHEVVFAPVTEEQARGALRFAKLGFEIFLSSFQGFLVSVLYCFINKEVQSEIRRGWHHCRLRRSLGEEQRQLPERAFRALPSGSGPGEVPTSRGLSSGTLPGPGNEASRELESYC
How it was run: as §1

[1] = HEK293, read-out: hGLP-1R Emax, % ± SEM, cAMP, 37° C., 0.1% bovine casein, percent of maximal response to GLP-1(7-36)NH2, arithmetic mean
[2] = hGLP-1R EC50, nM (SEM, n), cAMP, 37° C., 0.1% bovine casein (no human serum albumin)
[3] = hGCGR EC50, nM (SEM, n), cAMP, 37° C., 0.1% bovine casein (no human serum albumin), geometric mean
[4] = hGCGR EC50, nM (SEM, n), cAMP, 37° C., 0.1% bovine casein and 1.0% human serum albumin, geometric mean (SEM, n)
[5] = cAMP, 37° C., 0.1% bovine casein (no human serum albumin)

Sequence of hGLP-1R (P43220 24-463): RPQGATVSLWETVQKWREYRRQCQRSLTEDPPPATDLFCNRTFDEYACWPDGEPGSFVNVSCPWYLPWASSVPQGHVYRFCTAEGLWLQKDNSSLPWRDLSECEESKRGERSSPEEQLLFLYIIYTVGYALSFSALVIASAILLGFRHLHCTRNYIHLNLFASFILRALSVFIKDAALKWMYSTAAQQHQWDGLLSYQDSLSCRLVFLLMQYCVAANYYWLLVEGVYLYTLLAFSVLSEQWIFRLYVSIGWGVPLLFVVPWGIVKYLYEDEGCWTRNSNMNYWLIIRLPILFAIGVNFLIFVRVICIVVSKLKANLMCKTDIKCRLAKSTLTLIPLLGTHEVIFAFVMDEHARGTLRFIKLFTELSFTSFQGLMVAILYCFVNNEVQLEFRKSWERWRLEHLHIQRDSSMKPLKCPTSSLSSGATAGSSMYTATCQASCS

CC[C@H](C)[C@H](NC(=O)[C@H](CCCN)NC(=O)[C@H](CC(=O)O)NC(=O)[C@H](CC(C)C)NC(=O)[C@](C)(CC(C)C)NC(=O)[C@@H](NC(=O)[C@H](CO)NC(=O)[C@H](Cc1ccncc1)NC(=O)[C@H](CC(=O)O)NC(=O)[C@H](CO)NC(=O)[C@@H](NC(=O)[C@](C)(Cc1ccccc1F)NC(=O)[C@@H](NC(=O)CNC(=O)[C@H](CCC(=O)O)NC(=O)C(C)(C)NC(=O)[C@@H](N)Cc1ccc(O)cc1)[C@@H](C)O)[C@@H](C)O)[C@@H](C)CC)C(=O)N[C@@H](C)C(=O)N[C@@H](CCC(N)=O)C(=O)NC(C)(C)C(=O)N[C@@H](CCCCNC(=O)COCCOCCNC(=O)COCCOCCNC(=O)COCCOCCNC(=O)CC[C@H](NC(=O)CCCCCCCCCCCCC(=O)O)C(=O)O)C(=O)N[C@@H](Cc1ccccc1)C(=O)N[C@H](C(=O)N[C@H](CCC(=O)O)C(=O)N[C@@](C)(Cc1ccc(O)cc1)C(=O)N[C@@H](CC(C)C)C(=O)N[C@H](C(=O)N[C@@H](CCCCNC(=O)COCCOCCNC(=O)COCCOCCNC(=O)COCCOCCNC(=O)CC[C@H](NC(=O)CCCCCCCCCCCCC(=O)O)C(=O)O)C(=O)NCC(=O)NCC(=O)N1CCC[C@H]1C(=O)N[C@@H](CO)C(=O)N[C@@H](CO)C(=O)NCC(=O)N[C@@H](C)C(=O)N1CCC[C@H]1C(=O)N1CCC[C@H]1C(=O)N1CCC[C@H]1C(=O)N[C@@H](CO)C(N)=O)[C@@H](C)CC)[C@@H](C)CC [Example 227]
Emax (hGLP-1R; HEK293, 0.1% bovine casein and 1.0% human serum albumin, 37° C., percent of maximal response to GLP-1(7-36)NH2, read-out: hGLP-1R Emax, % ± SEM): 111%
Emax (hGLP-1R; HEK293, percent of maximal response to GLP-1(7-36)NH2, 37° C., 0.1% bovine casein, arithmetic mean, read-out: hGLP-1R Emax, % ± SEM): 96.1%
EC50 (hGLP-1R; cAMP, incubated at 37° C., 0.1% bovine casein (no human serum albumin), read-out: hGLP-1R EC50, nM (SEM, n)): 1.22 nM
EC50 (hGCGR; 0.1% bovine casein and 1.0% human serum albumin, 37° C., geometric mean, read-out: hGCGR EC50, nM (SEM, n)): > 9950 nM
EC50 (hGCGR; cAMP, incubated at 37° C., 0.1% bovine casein (no human serum albumin), geometric mean, read-out: hGCGR EC50, nM (SEM, n)): > 9950 nM
Emax (hGIPR; HEK293, 0.1% bovine casein and 1.0% human serum albumin, 37° C., percent of maximal response to GIP(1-42)NH2, read-out: hGIPR Emax, % ± SEM): 76.1%

CC[C@H](C)[C@H](NC(=O)[C@H](CCCN)NC(=O)[C@H](CC(=O)O)NC(=O)[C@H](CC(C)C)NC(=O)[C@](C)(CC(C)C)NC(=O)[C@@H](NC(=O)[C@H](CO)NC(=O)[C@H](Cc1ccncc1)NC(=O)[C@H](CC(=O)O)NC(=O)[C@H](CO)NC(=O)[C@@H](NC(=O)[C@](C)(Cc1ccccc1F)NC(=O)[C@@H](NC(=O)CNC(=O)[C@H](CCC(=O)O)NC(=O)C(C)(C)NC(=O)[C@@H](N)Cc1ccc(O)cc1)[C@@H](C)O)[C@@H](C)O)[C@@H](C)CC)C(=O)N[C@@H](C)C(=O)N[C@@H](CCC(N)=O)C(=O)NC(C)(C)C(=O)N[C@@H](CCCCNC(=O)COCCOCCNC(=O)COCCOCCNC(=O)CCCCCCCCCCCCC(=O)O)C(=O)N[C@@H](Cc1ccccc1)C(=O)N[C@H](C(=O)N[C@@H](CCCCNC(=O)COCCOCCNC(=O)COCCOCCNC(=O)CCCCCCCCCCCCC(=O)O)C(=O)N[C@@](C)(Cc1ccc(O)cc1)C(=O)N[C@@H](CC(C)C)C(=O)N[C@H](C(=O)N[C@@H](CCC(=O)O)C(=O)NCC(=O)NCC(=O)N1CCC[C@H]1C(=O)N[C@@H](CO)C(=O)N[C@@H](CO)C(=O)NCC(=O)N[C@@H](C)C(=O)N1CCC[C@H]1C(=O)N1CCC[C@H]1C(=O)N1CCC[C@H]1C(=O)N[C@@H](CO)C(N)=O)[C@@H](C)CC)[C@@H](C)CC [Example 191]
Emax (hGLP-1R; HEK293, read-out: hGLP-1R Emax, % ± SEM, 0.1% bovine casein and 1.0% human serum albumin, 37° C., percent of maximal response to GLP-1(7-36)NH2): 105 ± 7.98%
EC50 (hGLP-1R; hGLP-1R EC50, nM (SEM, n), 0.1% bovine casein and 1.0% human serum albumin, 37° C.): 13.1 nM
EC50 (hGCGR; hGCGR EC50, nM (SEM, n), 0.1% bovine casein and 1.0% human serum albumin, 37° C., geometric mean): > 9950 nM
EC50 (hGCGR; hGCGR EC50, nM (SEM, n), cAMP, incubated at 37° C., 0.1% bovine casein (no human serum albumin), geometric mean): > 9950 nM
Emax (hGIPR; HEK293, read-out: hGIPR Emax, % ± SEM, 0.1% bovine casein and 1.0% human serum albumin, 37° C., percent of maximal response to GIP(1-42)NH2): 86.2 ± 5.5%
Emax (hGIPR; HEK293, read-out: hGIPR Emax, % ± SEM, percent of maximal response to GIP(1-42)NH2, 37° C., 0.1% bovine casein, arithmetic mean): 90 ± 3.29%
EC50 (hGIPR; 0.1% bovine casein and 1.0% human serum albumin, 37° C.): 0.866 nM

CC[C@H](C)[C@H](NC(=O)[C@H](CCCN)NC(=O)[C@H](CC(=O)O)NC(=O)[C@H](CC(C)C)NC(=O)[C@](C)(CC(C)C)NC(=O)[C@@H](NC(=O)C(C)(C)NC(=O)[C@H](Cc1ccncc1)NC(=O)[C@H](CC(=O)O)NC(=O)[C@H](CO)NC(=O)[C@@H](NC(=O)[C@](C)(Cc1ccccc1F)NC(=O)[C@@H](NC(=O)CNC(=O)[C@H](CCC(=O)O)NC(=O)C(C)(C)NC(=O)[C@@H](N)Cc1ccc(O)cc1)[C@@H](C)O)[C@@H](C)O)[C@@H](C)CC)C(=O)N[C@@H](C)C(=O)N[C@@H](CCC(N)=O)C(=O)NC(C)(C)C(=O)N[C@@H](CCC(=O)O)C(=O)N[C@@H](Cc1ccccc1)C(=O)N[C@H](C(=O)N[C@@H](CCCCNC(=O)COCCOCCNC(=O)COCCOCCNC(=O)COCCOCCNC(=O)CC[C@H](NC(=O)CCCCCCCCCOc1ccc(C(=O)O)cc1)C(=O)O)C(=O)N[C@@](C)(Cc1ccc(O)cc1)C(=O)N[C@@H](CC(C)C)C(=O)N[C@H](C(=O)N[C@@H](CCCCNC(=O)COCCOCCNC(=O)COCCOCCNC(=O)COCCOCCNC(=O)CC[C@H](NC(=O)CCCCCCCCCOc1ccc(C(=O)O)cc1)C(=O)O)C(=O)NCC(=O)NCC(=O)N1CCC[C@H]1C(=O)N[C@@H](CO)C(=O)N[C@@H](CO)C(=O)NCC(=O)N[C@@H](C)C(=O)N1CCC[C@H]1C(=O)N1CCC[C@H]1C(=O)N1CCC[C@H]1C(=O)N[C@@H](CO)C(N)=O)[C@@H](C)CC)[C@@H](C)CC [Example 345]
Emax (hGLP-1R; HEK293, read-out: hGLP-1R Emax, % ± SEM, cAMP, 37° C., 0.1% bovine casein and 1.0% human serum albumin, percent of maximal response to GLP-1(7-36)NH2): 110%
Emax (hGLP-1R; [1]): 105%
EC50 (hGLP-1R; [2]): 0.285 nM
EC50 (hGCGR; [3]): > 9950 nM
EC50 (hGCGR; [4]): > 9950 nM
Emax (hGIPR; HEK293, read-out: hGIPR Emax, % ± SEM, cAMP, 37° C., 0.1% bovine casein and 1.0% human serum albumin, percent of maximal response to GIP(1-42)NH2): 86.8%
Emax (hGIPR; HEK293, read-out: hGIPR Emax, % ± SEM, cAMP, 37° C., 0.1% bovine casein, percent of maximal response to GIP(1-42)NH2, arithmetic mean): 98.9%
EC50 (hGIPR; [5]): 0.0147 nM

CC[C@H](C)[C@H](NC(=O)[C@H](CC(C)C)NC(=O)[C@](C)(Cc1ccc(O)cc1)NC(=O)[C@H](CCCCNC(=O)COCCOCCNC(=O)COCCOCCNC(=O)CC[C@H](NC(=O)CCCCCCCCCOc1ccc(C(=O)O)cc1)C(=O)O)NC(=O)[C@@H](NC(=O)[C@H](Cc1ccccc1)NC(=O)[C@H](CCCN)NC(=O)C(C)(C)NC(=O)[C@H](CCC(N)=O)NC(=O)[C@H](C)NC(=O)[C@H](CCC(N)=O)NC(=O)[C@H](CCCN)NC(=O)[C@H](CC(=O)O)NC(=O)[C@H](CC(C)C)NC(=O)[C@](C)(CC(C)C)NC(=O)[C@@H](NC(=O)C(C)(C)NC(=O)[C@@H](NC(=O)[C@H](CC(=O)O)NC(=O)[C@H](CO)NC(=O)[C@@H](NC(=O)[C@](C)(Cc1ccccc1F)NC(=O)[C@@H](NC(=O)CNC(=O)[C@H](CCC(=O)O)NC(=O)C(C)(C)NC(=O)[C@@H](N)Cc1ccc(O)cc1)[C@@H](C)O)[C@@H](C)O)C(C)C)[C@@H](C)CC)[C@@H](C)CC)C(=O)N[C@@H](CCCCNC(=O)COCCOCCNC(=O)COCCOCCNC(=O)CC[C@H](NC(=O)CCCCCCCCCOc1ccc(C(=O)O)cc1)C(=O)O)C(=O)NCC(=O)NCC(=O)N1CCC[C@H]1C(=O)N[C@@H](CO)C(=O)N[C@@H](CO)C(=O)NCC(=O)N[C@@H](C)C(=O)N1CCC[C@H]1C(=O)N1CCC[C@H]1C(=O)N1CCC[C@H]1C(=O)N[C@@H](CO)C(N)=O [Example 447]
Emax (hGLP-1R; [1]): 105%
EC50 (hGLP-1R; [2]): 0.219 nM
EC50 (hGCGR; [3]): > 9950 nM
EC50 (hGCGR; [4]): > 9950 nM
EC50 (hGIPR; [5]): 0.017 nM
